Source: EP0545103A1, “Insecticidal, acaricidal and molluscicidal 1-(substituted) thioalkylpyrroles” (priority 1991, dated 1993)

How the values were obtained:
Type in all cases: in vivo
[1] = system: Aphis fabae, mixed instar, bean aphid; experiment: Bean aphid spray test on nasturtium; set-up: key: 0: no effect; 10-25% kill; 26-35% kill; 36-45% kill; 46-55% kill; 56-65% kill; 66-75% kill; 76-85% kill; 86-99% kill; 9: 100% kill; details: 100 ppm; spray; mortality rating after 2 days
Experimental: (§1) Test solutions are prepared by dissolving the test compound in a 35% acetone in water mixture to give a concentration of 10,000 ppm. Subsequent dilutions are made with water as needed.
Aphis fabae, mixed instar, bean aphid
Pots containing single nasturtium plants (Tropaeolum sp.) about 5 cm tall are infested with about 100-200 aphids one day prior to treatment. Each pot is sprayed with the test solution for 2 revolutions of a 4 rpm turntable in a hood, using a #154 DeVilbiss atomizer. The spray tip is held about 15 cm from the plant and the spray directed so as to give complete coverage of the plants and the aphids. The sprayed pots are set on their sides on white enamel trays and mortality estimates are made after 2 days.
(§2) All of the above tests are rated according to the rating scale shown below.

[2] = system: Heliothis virescens, egg, tobacco budworm; experiment: Tobacco budworm egg test, dipped cotton leaf and eggs; set-up: key: 0: no effect; 10-25% kill; 26-35% kill; 36-45% kill; 46-55% kill; 56-65% kill; 66-75% kill; 76-85% kill; 86-99% kill; 9: 100% kill; details: 1000 ppm; mortality rating after 3 days
Experimental: as §1
Heliothis virescens, egg, tobacco budworm
A young cotton leaf about 6-7cm in length is dipped in an agitated test suspension for about 3 seconds. Eggs are collected on a cheesecloth and the cloth is cut into 10-20mm squares, each containing approximately 50-100 eggs which are 6-30 hours old. The egg-containing cheesecloth square is similarly dipped in a test suspension and placed on a treated cotton leaf. The combination is dried in a hood and then placed in an 8 ounce Dixie® cup #2168-ST (240ml volume, 6cm tall, 9.5cm top diameter, 8.0cm bottom diameter) into which a 5cm length of damp dental wick has been placed. The cup is covered with a clear plastic lid and held for 3 days, after which mortality counts are made.
as §2

[3] = system: Empoasca abrupta, adult, western potato leafhopper; experiment: Western potato leafhopper contact test, dipped limabean leaf; details: mortality rating after 2 days
Experimental: as §1
Empoasca abrupta, adult, western potato leafhopper
A Sieva limabean leaf about 5 cm long is dipped in the test solution for 3 seconds with agitation and placed in a hood to dry. The treated leaf is placed in a 100 x 10 mm petri dish containing a moist filter paper and about 10 adult leafhoppers are added. After 2 days, mortality counts are made.
as §2

[4] = system: Tetranychus urticae (OP-resistant strain), 2-spotted spider mite; experiment: 2-spotted spider mite test, dipped infested limabean plants; set-up: key: 0: no effect; 10-25% kill; 26-35% kill; 36-45% kill; 46-55% kill; 56-65% kill; 66-75% kill; 76-85% kill; 86-99% kill; 9: 100% kill; details: for OP-RESISTANT MITES Adult: mortality rating after 2 days; for OP-RESISTANT MITES Egg / OP-RESISTANT MITES Nymph: rating after 5 days
Experimental: as §1
Tetranychus urticae (OP-resistant strain), 2-spotted spider mite
Sieva limabean plants with primary leaves expanded to 7-8 cm are selected and cut back to one plant per pot. A small piece is cut from an infested leaf taken from the main colony and placed on each leaf of the test plants. This is done about 2 hours before treatment to allow the mites to move over to the test plant and to lay eggs. The size of the cut, infested leaf is varied to obtain about 100 mites per leaf. At the time of test treatment, the piece of leaf used to transfer the mites is removed and discarded. The newly mite-infested plants are dipped in the test solution for 3 seconds with agitation and set in the hood to dry. After 2 days one leaf is removed and mortality counts are made. After 5 days, another leaf is removed and observations are made of mortality of the eggs and/or newly emerged nymphs.
as §2

[5] = system: Empoasca abrupta, adult, western potato leafhopper; experiment: Western potato leafhopper systemic uptake test; set-up: key: 0: no effect; 10-25% kill; 26-35% kill; 36-45% kill; 46-55% kill; 56-65% kill; 66-75% kill; 76-85% kill; 86-99% kill; 9: 100% kill; details: 100 ppm; cut stem in emulsion 3 days; mortality rating after 2 days
Experimental: Empoasca abrupta, adult, western potato leafhopper Systemic Uptake
An emulsion containing 0.1 gm of the test material, 0.2 gm of Emulphor EL-620® emulsifier, 10 mL of acetone and 90 mL of water is prepared and diluted 10-fold with water to give a 100 ppm emulsion. Subsequent 10-fold dilutions are made with water as needed. Sieva limabean plants, with the primary leaves expanded to a length of 7-8 cm, are cut off at least 3 cm above the soil level to avoid contamination with soil bacteria which will cause decay of the stem during the test. The cut stem is placed in the test emulsion and wrapped with a bit of cotton to hold the stem off the bottom of the bottle and to limit evaporation. The treated stem is maintained for 3 days at 27°C to allow the test compound to be taken up into the plant. Following this, one leaf is removed from the plant and placed in a 100 x 10 mm petri dish containing a moist filter paper and about 10 adult leafhoppers as described above. Mortality counts are made after 2 days.
as §2

[6] = system: Spodoptera eridania, 3rd instar larvae, southern armyworm; experiment: Southern armyworm systemic uptake (stem systemic) test; set-up: key: 0: no effect; 10-25% kill; 26-35% kill; 36-45% kill; 46-55% kill; 56-65% kill; 66-75% kill; 76-85% kill; 86-99% kill; 9: 100% kill; details: cut stem in emulsion 3 days
Description: Spodoptera eridania, systemic uptake, 3rd instar larvae, southern armyworm
Subsequent 10-fold dilutions are made with water as needed. Sieva limabean plants, with the primary leaves expanded to a length of 7-8 cm, are cut off at least 3 cm above the soil level to avoid contamination with soil bacteria which will cause decay of the stem during the test. The cut stem is placed in the test emulsion and wrapped with a bit of cotton to hold the stem off the bottom of the bottle and to limit evaporation. The treated stem is thus maintained for 3 days at 27° C to allow the test compound to be taken up into the plant. Following this, one leaf is removed from the plant and placed in a 100 x 10 mm petri dish with 10 southern armyworms as described above. Mortality counts and observations of feeding damage are made 3 and 5 days later.
as §2

[7] = system: Spodoptera eridania, 3rd instar larvae, southern armyworm; experiment: Southern armyworm 3rd instar test, dipped limabean leaf; details: for ARMYWORM Day 3: rating at 3 days; for ARMYWORM Day 5: rating at 5 days
Experimental: as §1
Spodoptera eridania, 3rd instar larvae, southern armyworm
A Sieva limabean leaf expanded to 7-8 cm in length is dipped in the test solution with agitation for 3 seconds and allowed to dry in a hood. The leaf is then placed in a 100 x 10 mm petri dish containing a damp filterpaper on the bottom and ten 3rd instar caterpillars. At 3 and 5 days, observations are made of mortality, reduced feeding, or any interference with normal molting.
as §2

[8] = system: Heliothis virescens, 3rd instar tobacco budworm; experiment: Tobacco budworm 3rd instar test, dipped cotton cotyledons; set-up: key: 0: no effect; 10-25% kill; 26-35% kill; 36-45% kill; 46-55% kill; 56-65% kill; 66-75% kill; 76-85% kill; 86-99% kill; 9: 100% kill; details: mortality rating after 3 days
Experimental: as §1
Heliothis virescens, 3rd instar tobacco budworm
Cotton cotyledons are dipped in the test solution and allowed to dry in a hood. When dry, each is cut into quarters and ten sections are placed individually in 30 mL plastic medicine cups containing a 5-7mm long piece of damp dental wick. One 3rd instar caterpillar is added to each cup and the cup is sealed with MYLAR® film. Treatments are maintained for 3 days before a mortality count and observation of reduction in feeding damage are made.
as §2

[9] = system: Diabrotic undecimpunctata howardi, 3rd instar southern corn rootworm; experiment: Southern corn rootworm soil test; set-up: key: 0: no effect; 10-25% kill; 26-35% kill; 36-45% kill; 46-55% kill; 56-65% kill; 66-75% kill; 76-85% kill; 86-99% kill; 9: 100% kill; details: mortality rating after 6 days
Experimental: Diabrotic undecimpunctata howardi, 3rd instar southern corn rootworm
One cc of fine talc is placed in a 30 mL wide-mouth screw-top glass jar. One mL of the appropriate acetone test solution is pipetted onto the talc so as to provide 1.25 and 0.25 mg of active ingredient per jar. The jars are set under a gentle air flow until the acetone is evaporated. The dried talc is loosened, 1 cc of millet seed is added to serve as food for the insects and 25 mL of moist soil is added to each jar. The jar is capped and the contents thoroughly mixed on a Vortex Mixer. Following this, ten 3rd instar rootworms are added to each jar and the jars are loosely capped to allow air exchange for the larvae. The treatments are held for 6 days when mortality counts are made. Missing larvae are presumed dead, since they decompose rapidly and can not be found. The concentrations used in this test correspond approximately to 50 and 10 kg/ha, respectively.
as §2

[10] = system: Spodoptera eridania, 3rd instar larvae, southern armyworm; experiment: Southern armyworm 7-day residual test; details: R designates Residual: 7-day residual foliage, concentration not given
Experimental: as §1
Spodoptera eridania, 3rd instar larvae, southern armyworm, 7-day residual
The limabean leaves treated in the above test are maintained under high intensity lamps in the greenhouse for 7 days. These lamps duplicate the effects of a bright sunny day in June in New Jersey and are kept on for 14 hour day length. After 7 days, the foliage is sampled and assayed as in the above-said test.
as §2

| SMILES | APHIDS [1] | TOBACCO BUDWORM Egg [2] | LEAFHOPPER Contact ([3]; 10 ppm) | LEAFHOPPER Contact ([3]; 100 ppm) | OP-RESISTANT MITES Adult ([4]; 10 ppm) | OP-RESISTANT MITES Egg ([4]; 10 ppm) | OP-RESISTANT MITES Adult ([4]; 100 ppm) | OP-RESISTANT MITES Egg ([4]; 100 ppm) | OP-RESISTANT MITES Adult ([4]; 300 ppm) | OP-RESISTANT MITES Egg ([4]; 300 ppm) | OP-RESISTANT MITES Nymph ([4]; 300 ppm) | LEAFHOPPER Systemic [5] | ARMYWORM Stem Sys [6] | ARMYWORM Day 3 ([7]; 10 ppm) | ARMYWORM Day 5 ([7]; 10 ppm) | ARMYWORM Day 3 ([7]; 100 ppm) | ARMYWORM Day 5 ([7]; 100 ppm) | ARMYWORM Day 3 ([7]; 1000 ppm) | ARMYWORM Day 5 ([7]; 1000 ppm) | also measured |
| --- | --- | --- | --- | --- | --- | --- | --- | --- | --- | --- | --- | --- | --- | --- | --- | --- | --- | --- | --- | --- |
| CC(C)OC(=S)SCn1c(-c2ccc(Cl)cc2)c(C#N)c(Cl)c1C(F)(F)F [Example 22] | 7 (76-85% kill) | 0 | 9 (100% kill) | 9 (100% kill) | 9 (100% kill) | 9 (100% kill) | 9 (100% kill) | 9 (100% kill) | 9 (100% kill) | 0 | 9 (100% kill) | 0 | 0 | 9 (100% kill) | 9 (100% kill) | 9 (100% kill) | 9 (100% kill) | 9 (100% kill) | 9 (100% kill) |  |
| N#Cc1c(Cl)c(C(F)(F)F)n(CSC2=NCCCN2)c1-c1ccc(Cl)cc1 [Example 5] | 0 | 0 |  |  | 0 | 0 |  | 9 (100% kill) |  | 0 | 0 | 8 (86-99% kill) | 8 (86-99% kill) |  |  |  |  |  |  | TOBACCO BUDWORM 3rd Instar ([8]; 10 ppm): 0; TOBACCO BUDWORM 3rd Instar ([8]; 100 ppm): 9 (100% kill); TOBACCO BUDWORM 3rd Instar ([8]; 1000 ppm): 9 (100% kill); SOUTHERN CORN ROOTWORM ([9]; 50 (ppm as headed)): 0; OP-RESISTANT MITES Nymph ([4]; 10 ppm): 0; ARMYWORM Day 3 R ([10]; rating at 3 days): 9 (100% kill); ARMYWORM Day 5 R ([10]; rating at 5 days): 9 (100% kill) |
| CCOC(=S)SCn1c(-c2ccc(Cl)cc2)c(C#N)c(Cl)c1C(F)(F)F [Example 23] | 5 (56-65% kill) | 0 | 9 (100% kill) | 9 (100% kill) | 9 (100% kill) | 9 (100% kill) | 9 (100% kill) | 9 (100% kill) | 9 (100% kill) | 0 | 9 (100% kill) | 0 |  | 9 (100% kill) | 9 (100% kill) | 9 (100% kill) | 9 (100% kill) | 9 (100% kill) | 9 (100% kill) | SOUTHERN CORN ROOTWORM ([9]; 1 (ppm as headed)): 0 |
